Test results as given in US20120004222A1, “CB2 RECEPTOR LIGANDS FOR THE TREATMENT OF PAIN” (priority 2007, published 2012).

The compounds below were run against T1, human CB2 (Homo sapiens, UniProt P34972) (assay: Cyclic AMP assay (HTRF) in CHO cells expressing human CB2). Conditions: not given.
T1 construct: expressed in transfected cells; host or cells: CHO (Chinese Hamster Ovary) cells
Type: cell-based
Protocol: Chinese Hamster Ovary cells (CHO) expressing human CB1 or human CB2 (3.3×10^5 cells/ml) were preincubated for 15 min at room temperature with tested agonist and 3-isobutyl-1-methylxanthine (IBMX; 200 μM) in phosphate buffered saline containing 1 mg/ml BSA (assay buffer) followed by 30 min incubation with forskolin in a total volume of 10 μl. The optimal forskolin concentration for each cell line was established in a separate experiment and adjusted to stimulate 70% of maximal cAMP response. cAMP content was measured using an HTRF assay (CisBio) according to the manufacturer's two step protocol.

T1 sequence (P34972 whole entry): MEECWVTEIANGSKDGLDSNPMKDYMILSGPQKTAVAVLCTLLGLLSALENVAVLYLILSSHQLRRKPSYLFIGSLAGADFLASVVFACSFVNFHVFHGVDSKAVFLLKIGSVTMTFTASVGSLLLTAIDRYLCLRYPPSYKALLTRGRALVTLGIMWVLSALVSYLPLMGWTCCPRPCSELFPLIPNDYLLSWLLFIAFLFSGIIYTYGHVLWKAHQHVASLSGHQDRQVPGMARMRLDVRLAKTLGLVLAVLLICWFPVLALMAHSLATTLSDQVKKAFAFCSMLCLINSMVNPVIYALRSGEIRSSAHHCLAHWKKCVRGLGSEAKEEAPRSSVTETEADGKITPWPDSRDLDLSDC

SMILES	IC50 [nM]
FC1(F)CCN(Cc2nc(-c3cccc(C(F)(F)F)c3)n3ccccc23)CC1 [Example IV-1, 1-[(4,4-difluoropiperidin-1-yl)methyl]-3-[3-(trifluoromethyl)phenyl]imidazo[1,5-α]pyridine]	17
FC1(F)CCN(Cc2nc(-c3nc(-c4ccccc4)c[nH]3)n3ccccc23)CC1 [Example II-1, 1-[(4,4-difluoropiperidin-1-yl)methyl]-3-(4-phenyl-1H-imidazol-2-yl)imidazo[1,5-a]pyridine]	178
CC(C)(O)CCc1ccc(-c2nc(CN3CCC(F)(F)CC3)c3ccccn23)cc1 [IV-6, 4-(4-{1-[(4,4-DIFLUOROPIPERIDIN-1- YL)METHYL]IMIDAZO[1,5-A]PYRIDIN-3- YL}PHENYL)-2-METHYLBUTAN-2-OL]	1350

Same assay, conditions: CHO cells expressing human CB2; forskolin-stimulated cAMP, IBMX 200 μM; read-out: CB2 IC50

SMILES	IC50 [nM]
Fc1ccc(-c2cc(-c3nc(CN4CCOCC4)c4ccccn34)[nH]n2)cc1 [Example III-1, 3-[3-(4-fluorophenyl)-1H-pyrazol-5-yl]-1-(morpholin-4-ylmethyl)imidazo[1,5-a]pyridine]	617
c1ccc2[nH]c(-c3nc(CN4CCOCC4)c4ccccn34)nc2c1 [Example I-1, 2-[1-(morpholin-4-ylmethyl)imidazo[1,5-a]pyridin-3-yl]-1H-benzimidazole]	1260

Further lines, results first:

IC50 [nM]	SMILES
199	FC1(F)CCN(Cc2nc(-c3nc(-c4ccc(Cl)cc4)c[nH]3)n3ccccc23)CC1 [II-2, 3-[4-(4-CHLOROPHENYL)-1H-IMIDAZOL-2- YL]-1-[(4,4-DIFLUOROPIPERIDIN-1- YL)METHYL]IMIDAZO[1,5-A]PYRIDINE]
113	FC1(F)CCN(Cc2nc(-c3cccc(-n4cccn4)c3)n3ccccc23)CC1 [IV-7, 1-[(4,4-DIFLUOROPIPERIDIN-1- YL)METHYL]-3-[3-(1H-PYRAZOL-1- YL)PHENYL]IMIDAZO[1,5-A]PYRIDINE]
165	FC1(F)CCN(Cc2nc(-c3nc(-c4cccc(C(F)(F)F)c4)c[nH]3)n3ccccc23)CC1 [II-5, 1-[(4,4-DIFLUOROPIPERIDIN-1- YL)METHYL]-3-{4-[3- (TRIFLUOROMETHYL)PHENYL]-1H- IMIDAZOL-2-YL}IMIDAZO [1,5-A]PYRIDINE]
146	FC1(F)CCN(Cc2nc(-c3nc(-c4ccc(Cl)cc4Cl)c[nH]3)n3ccccc23)CC1 [II-3, 3-[4-(2,4-DICHLOROPHENYL)-1H- IMIDAZOL-2-YL]-1-[(4,4- DIFLUOROPIPERIDIN-1- YL)METHYL]IMIDAZO[1,5-A]PYRIDINE]
116	FC1(F)CCN(Cc2nc(-c3ccc(-c4ccn[nH]4)cc3)n3ccccc23)CC1 [IV-4, 1-[(4,4-DIFLUOROPIPERIDIN-1- YL)METHYL]-3-[4-(1H-PYRAZOL-5- YL)PHENYL]IMIDAZO[1,5-A]PYRIDINE]
171	Fc1ccc(-c2c[nH]c(-c3nc(CN4CCC(F)(F)CC4)c4ccccn34)n2)cc1F [II-4, 3-[4-(3,4-DIFLUOROPHENYL)-1H- IMIDAZOL-2-YL]-1-[(4,4- DIFLUOROPIPERIDIN-1-YL)METHYL] IMIDAZO[1,5-A]PYRIDINE]
